Experimental data: US8835632B2, “Methods to increase the photostability of dyes” (The University of North Carolina at Chapel Hill, priority 2007, dated 2014)
One block for each compound: values may come before it.

Tests used:
Assay type in all cases: physicochemical
[1] = Absorption and fluorescence spectra, extinction coefficient, fluorescence quantum yield
Protocol: Absorption spectra were recorded on a Hewlett-Packard 8453 diode array UV-Vis spectrophotometer (Agilent Technologies, Inc., Santa Clara, Calif.), and fluorescence measurements were taken on a SPEX® Fluorolog 2 spectrofluorometer (HORIBA Jobin Yvon, Inc., Edison, N.J.). Melting points are not corrected. NMR spectra were obtained on a Varian Mercury 300 MHz (Varian, Inc., Palo Alto, Calif.) or on a Bruker 300 MHz DRX 300 spectrometer (Bruker Biospin Corp., Billerica, Mass.). Mass spectra were obtained on a Hewlett-Packard 1100 high-performance liquid chromatograph equipped with an 1100 mass selective detector (MS-ESI) (Agilent Technologies, Inc.).
With decreasing solvent polarity, the absorption maximum of dyes 1a-b, 2a-d shifted to longer wavelengths, and the intensity of the transition increased (Table 10, FIG. 11).
The SCRF/VSCRF predicted emission energies and the solute dipole moments before and after the vertical emission process are given in Table 16. The dipole moments of AI-BA(4) and AI-SO(4) are further decreased on the S1 surface after geometry relaxation (in MeOH solution), and then increased during the S1→S0 transition. This observation is consistent with the blue shifts of the emission bands of AI-BA(4) and AI-SO(4) with increasing solvent polarity from C6H6 to MeOH. By contrast, the dipole moment of I-SO further decreases after S1 state geometry relaxation, and then decreases during the vertical emission process. This observation also is in agreement with the red shift of the I-SO emission band with increasing solvent polarity from C6H6 to MeOH. Similarly to the absorption case, a negligible red shift (ΔEem=0.017 eV) was predicted for the emission band of I-TBA with increasing solvent polarity. A small red shift from C6H6 to DMF (with ΔEem=0.020 eV, or Δλmax=6 nm) is observed. The nearly equal emission energy observed in C6H6 and MeOH can again result in the explicit interactions between the solute and solvent molecules.

[2] = Photobleaching under constant illumination from a halogen tungsten lamp filtered through glass
Description: The photostability of dyes can be important for applications in living cells. The mechanism of photobleaching for merocyanines of varying structure has been examined See Toutchkine et al., J. Am. Chem. Soc. 125:4132-4145 (2003). The photostability of the presently disclosed dyes was characterized by exposing them to constant illumination from a halogen tungsten lamp filtered through glass. This broad spectrum light source provided essentially equal intensity throughout the spectral range where the dyes absorb and where they would be irradiated in vivo (about 600 nm to about 650 nm).

[3] = Relative rate of reaction with chemically generated singlet oxygen in DMSO; details: 2.5 mM, 1O2 from 1,4-dimethylnaphtalene-1,4-endoperoxide
Protocol: The bleaching rates for the dyes differed by two orders of magnitude. The relative rate constants kr (rel) for product formation during reaction with singlet oxygen were measured by comparing the percent conversions for dyes dissolved in DMSO containing a fixed amount of ^1O2 (2.5 mM solutions; ^1O2 generated by decomposition of 1,4-dimethylnaphtalene-1,4-endoperoxide). The rates were generally higher for dyes with a polar ground state (1a, 2a, 2b, 2d) than for the dyes with their ground state at the “cyanine limit” (3, 4). […] Olefins without allylic hydrogens react with singlet oxygen to form dioxetanes. Dioxetanes are unstable and decompose, to form two carbonyl compounds.

[4] = MeOH, with respect to standard I-TBA in MeOH

Absorbance λmax ([1]; Butanol (BuOH)): 650 nm
Emission λmax ([1]; Butanol (BuOH)): 675 nm
Extinction coefficient ε ([1]; Butanol (BuOH)): 118000
Fluorescence quantum yield Φ ([1]; Butanol (BuOH)): 0.92
Absorption energy Eabs Exp ([1]; C6H6): 1.826 eV
Emission energy Eem Exp ([1]; C6H6): 1.794 eV
Absorption energy Eabs Exp ([1]; MeOH): 2.120 eV
Emission energy Eem Exp ([1]; MeOH): 1.865 eV
Absorbance λmax ([1]; Methanol (MeOH)): 610 nm
Emission λmax ([1]; Methanol (MeOH)): 654 nm
Extinction coefficient ε ([1]; Methanol (MeOH)): 65000
Fluorescence quantum yield Φ ([1]; Methanol (MeOH)): 0.54
Observed absorption (ε) ([1]; Table 10, BuOH): (118000)
Observed absorption λmax ([1]; Table 10, BuOH): 650 nm
Observed absorption (ε) ([1]; Table 10, C6H6): (240000)
Observed absorption λmax ([1]; Table 10, C6H6): 679 nm
Observed absorption (ε) ([1]; Table 10, CH2Cl2): (278000)
Observed absorption λmax ([1]; Table 10, CH2Cl2): 667 nm
Observed absorption (ε) ([1]; Table 10, CH3CN): (142000)
Observed absorption λmax ([1]; Table 10, CH3CN): 642 nm
Observed absorption (ε) ([1]; Table 10, DMF): (154000)
Observed absorption λmax ([1]; Table 10, DMF): 651 nm
Observed absorption (ε) ([1]; Table 10, DMSO): (118000)
Observed absorption λmax ([1]; Table 10, DMSO): 644 nm
Observed absorption (ε) ([1]; Table 10, EtOH): (83000)
Observed absorption λmax ([1]; Table 10, EtOH): 636 nm
Observed absorption (ε) ([1]; Table 10, MeOH): (65000)
Observed absorption λmax ([1]; Table 10, MeOH): 610 nm
Observed absorption (ε) ([1]; Table 10, OcOH): (150000)
Observed absorption λmax ([1]; Table 10, OcOH): 660 nm
Observed absorption (ε) ([1]; Table 10, i-PrOH): (122000)
Observed absorption λmax ([1]; Table 10, i-PrOH): 648 nm
Absorption Exp wavelength ([1]; Table 12, C6H6): 679 nm
Absorption Exp wavelength ([1]; Table 12, MeOH): 585 nm
Observed emission (Φ) ([1]; Table 15, BuOH): 0.92
Observed emission λmax ([1]; Table 15, BuOH): 675 nm
Observed emission (Φ) ([1]; Table 15, C6H6): 0.19
Observed emission λmax ([1]; Table 15, C6H6): 691 nm
Observed emission (Φ) ([1]; Table 15, CH2Cl2): 0.54
Observed emission λmax ([1]; Table 15, CH2Cl2): 681 nm
Observed emission (Φ) ([1]; Table 15, CH3CN): 0.75
Observed emission λmax ([1]; Table 15, CH3CN): 667 nm
Observed emission λmax ([1]; Table 15, DMF): 673 nm
Observed emission λmax ([1]; Table 15, DMSO): 673 nm
Observed emission (Φ) ([1]; Table 15, EtOH): 0.82
Observed emission λmax ([1]; Table 15, EtOH): 671 nm
Observed emission (Φ) ([1]; Table 15, MeOH): 0.54
Observed emission λmax ([1]; Table 15, MeOH): 665 nm
Observed emission (Φ) ([1]; Table 15, OcOH): 0.88
Observed emission λmax ([1]; Table 15, OcOH): 679 nm
Observed emission (Φ) ([1]; Table 15, i-PrOH): 0.96
Observed emission λmax ([1]; Table 15, i-PrOH): 673 nm
kph * 10^6 (absolute rate of photobleaching) ([2]; C6H6): 128 s^−1
kph(rel) (relative rate of photobleaching) ([2]; C6H6, with respect to standard I-SO in C6H6): 115
kph * 10^6 (absolute rate of photobleaching) ([2]; MeOH): 89 s^−1
kph(rel) (relative rate of photobleaching) [2, 4]: 261
kr(rel) (relative rate constants for product formation during reaction with singlet oxygen produced chemically) [3]: 59.2
Compound: CC1(C)c2ccccc2-[n+]2ccc(/C=C/C=C/C3=C(O)c4ccccc4S3(=O)=O)cc21 [AI-SO]

Observed absorption (ε) ([1]; Table 10, BuOH): (64000)
Observed absorption λmax ([1]; Table 10, BuOH): 593 nm
Observed absorption (ε) ([1]; Table 10, C6H6): (178000)
Observed absorption λmax ([1]; Table 10, C6H6): 644 nm
Observed absorption (ε) ([1]; Table 10, CH2Cl2): (187000)
Observed absorption λmax ([1]; Table 10, CH2Cl2): 629 nm
Observed absorption (ε) ([1]; Table 10, CH3CN): (93000)
Observed absorption λmax ([1]; Table 10, CH3CN): 596 nm
Observed absorption (ε) ([1]; Table 10, DMF): (99000)
Observed absorption λmax ([1]; Table 10, DMF): 604 nm
Observed absorption (ε) ([1]; Table 10, DMSO): (77000)
Observed absorption λmax ([1]; Table 10, DMSO): 599 nm
Observed absorption (ε) ([1]; Table 10, EtOH): (61000)
Observed absorption λmax ([1]; Table 10, EtOH): 557 nm
Observed absorption (ε) ([1]; Table 10, MeOH): (54000)
Observed absorption λmax ([1]; Table 10, MeOH): 580 nm
Observed absorption (ε) ([1]; Table 10, OcOH): (80000)
Observed absorption λmax ([1]; Table 10, OcOH): 612 nm
Observed absorption (ε) ([1]; Table 10, i-PrOH): (68000)
Observed absorption λmax ([1]; Table 10, i-PrOH): 597 nm
Observed emission (Φ) ([1]; Table 15, BuOH): 0.048
Observed emission λmax ([1]; Table 15, BuOH): 640 nm
Observed emission (Φ) ([1]; Table 15, C6H6): 0.002
Observed emission λmax ([1]; Table 15, C6H6): 656 nm
Observed emission (Φ) ([1]; Table 15, CH2Cl2): 0.082
Observed emission λmax ([1]; Table 15, CH2Cl2): 650 nm
Observed emission (Φ) ([1]; Table 15, CH3CN): 0.067
Observed emission λmax ([1]; Table 15, CH3CN): 632 nm
Observed emission (Φ) ([1]; Table 15, DMF): 0.10
Observed emission λmax ([1]; Table 15, DMF): 635 nm
Observed emission (Φ) ([1]; Table 15, DMSO): 0.067
Observed emission λmax ([1]; Table 15, DMSO): 636 nm
Observed emission (Φ) ([1]; Table 15, EtOH): 0.029
Observed emission λmax ([1]; Table 15, EtOH): 634 nm
Observed emission (Φ) ([1]; Table 15, MeOH): 0.018
Observed emission λmax ([1]; Table 15, MeOH): 630 nm
Observed emission (Φ) ([1]; Table 15, OcOH): 0.082
Observed emission λmax ([1]; Table 15, OcOH): 644 nm
Observed emission (Φ) ([1]; Table 15, i-PrOH): 0.049
Observed emission λmax ([1]; Table 15, i-PrOH): 636 nm
kph * 10^6 (absolute rate of photobleaching) ([2]; MeOH): 28 s^−1
kph(rel) (relative rate of photobleaching) [2, 4]: 82
kr(rel) (relative rate constants for product formation during reaction with singlet oxygen produced chemically) [3]: 60.3
Compound: C[n+]1ccc(/C=C/C=C/C2=C([O-])c3ccccc3S2(=O)=O)cc1 [P-SO(4)]
